According to ChEMBL document CHEMBL1201862, “PubChem BioAssay data set” (2004):
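96-well plates; 48 h exposure; 5 concentrations. Endpoints by linear interpolation between flanking doses. Not reached: highest tested concentration assigned. The concentration for 50% growth inhibition is given as GI50.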 Calls of active or inactive are those of the source. Rule as the data show it: active = GI50 up to about 1.1 µM and inactive = higher.

Columns and labels:
Experiment in all cases: DTP human tumour cell line panel, 48 h
SF-268 = tested on: SF-268
KM12 = tested on: KM12
IGROV-1 = tested on: IGROV-1
MOLT-4 = tested on: MOLT-4
A549 = tested on: A549
ACHN = tested on: ACHN
RXF 393 = tested on: RXF 393
COLO 205 = tested on: COLO 205
A498 = tested on: A498
UACC-62 = tested on: UACC-62
PC-3 = tested on: PC-3
OVCAR-3 = tested on: OVCAR-3
SNB-19 = tested on: SNB-19
MDA-MB-435 = tested on: MDA-MB-435
RPMI-8226 = tested on: RPMI-8226
UACC-257 = tested on: UACC-257
CAKI-1 = tested on: CAKI-1
SN12C = tested on: SN12C

| Structure (SMILES) | GI50 (SF-268) | GI50 (KM12) | GI50 (IGROV-1) | GI50 (MOLT-4) | GI50 (A549) | GI50 (ACHN) | GI50 (RXF 393) | GI50 (COLO 205) | GI50 (A498) | GI50 (UACC-62) | GI50 (PC-3) | GI50 (OVCAR-3) | GI50 (SNB-19) | GI50 (MDA-MB-435) | GI50 (RPMI-8226) | GI50 (UACC-257) | GI50 (CAKI-1) | GI50 (SN12C) |
| --- | --- | --- | --- | --- | --- | --- | --- | --- | --- | --- | --- | --- | --- | --- | --- | --- | --- | --- |
| Oc1c(Cl)cc2cc1-c1cc(cc(Cl)c1O)CCc1c(cc(Cl)c(O)c1Cl)-c1cc(Cl)c(c(Cl)c1O)/C=C\2 | 8.43 µM (inactive) | 7.76 µM (inactive) | 8.99 µM (inactive) | 30.2 µM (inactive) | 10.6 µM (inactive) | 13.7 µM (inactive) | 15.2 µM (inactive) | 8.24 µM (inactive) | 14.3 µM (inactive) | 8.69 µM (inactive) | 8.3 µM (inactive) | 7.4 µM (inactive) | 11.6 µM (inactive) | 8.02 µM (inactive) | 22.1 µM (inactive) | 13.6 µM (inactive) | – | – |
| COc1ccc(COCCOCc2nc(C#N)c(N)o2)cc1 | > 100 µM (inactive) | > 100 µM (inactive) | > 100 µM (inactive) | > 100 µM (inactive) | > 100 µM (inactive) | > 100 µM (inactive) | > 100 µM (inactive) | > 100 µM (inactive) | > 100 µM (inactive) | > 100 µM (inactive) | > 100 µM (inactive) | > 100 µM (inactive) | – | > 100 µM (inactive) | > 100 µM (inactive) | > 100 µM (inactive) | 89.9 µM (inactive) | > 100 µM (inactive) |
| CCC1(O)C(=O)OCc2c1cc1n(c2=O)Cc2c-1nc1ccccc1c2OC (stereo not given) | < 0.01 µM (active) | 0.167 µM (active) | 0.174 µM (active) | < 0.01 µM (active) | < 0.0127 µM (active) | < 0.01 µM (active) | < 0.0136 µM (active) | 0.378 µM (active) | 0.0513 µM (active) | < 0.01 µM (active) | – | 0.257 µM (active) | < 0.01 µM (active) | – | < 0.0212 µM (active) | 0.0575 µM (active) | < 0.01 µM (active) | < 0.01 µM (active) |
| COc1ccc2c(c1)Oc1cc(O)ccc1[C@@H]2c1ccccc1C(=O)NC(C)c1ccccc1 (stereo not given in full) | 19.1 µM (inactive) | 13.4 µM (inactive) | 18.2 µM (inactive) | 5.73 µM (inactive) | 17.7 µM (inactive) | 15.6 µM (inactive) | 13.1 µM (inactive) | 16.4 µM (inactive) | 17.7 µM (inactive) | 13.6 µM (inactive) | – | 15.9 µM (inactive) | 15.6 µM (inactive) | – | 6.49 µM (inactive) | 14.8 µM (inactive) | 20.6 µM (inactive) | 14.6 µM (inactive) |
| N#CC(C#N)=c1ccc(=C2NCC3CCCN23)cc1 (stereo not given) | > 100 µM (inactive) | > 100 µM (inactive) | > 100 µM (inactive) | > 100 µM (inactive) | > 100 µM (inactive) | – | > 100 µM (inactive) | > 100 µM (inactive) | > 100 µM (inactive) | > 100 µM (inactive) | – | – | > 100 µM (inactive) | – | > 100 µM (inactive) | > 100 µM (inactive) | > 100 µM (inactive) | > 100 µM (inactive) |
| O=C1CCCC2=C1CC1=C(CCCC1=O)N2c1ccccc1C(=O)O | > 100 µM (inactive) | > 100 µM (inactive) | > 100 µM (inactive) | > 100 µM (inactive) | > 100 µM (inactive) | > 100 µM (inactive) | > 100 µM (inactive) | – | > 100 µM (inactive) | > 100 µM (inactive) | > 100 µM (inactive) | > 100 µM (inactive) | > 100 µM (inactive) | – | > 100 µM (inactive) | – | > 100 µM (inactive) | > 100 µM (inactive) |
| COC(=O)[C@@]12C3=NO[C@]1(C(=O)OC)C(O[Si](C)(C)C(C)(C)C)C1OC(C)(C)OC1[C@@H]2[C@@H](OCc1ccccc1)CC3 (stereo not given in full) | – | 7.73 µM (inactive) | > 100 µM (inactive) | 7.52 µM (inactive) | > 100 µM (inactive) | – | – | 83.8 µM (inactive) | > 100 µM (inactive) | > 100 µM (inactive) | – | 39.7 µM (inactive) | > 100 µM (inactive) | – | 6.1 µM (inactive) | – | – | > 100 µM (inactive) |
